Test results published in the NIST ThermoML archive (doi:10.1016/j.jct.2005.03.020).

Test: xn = mol fraction of the nth substance listed
Settings: 298.15 K, 101.33 kPa, Liquid

ClCCCCCCl [1,5-dichloropentane] + CCOC(=O)CC
Settings | mass density [kg/m3]
x2 = 0.0734 | 1081.12
x2 = 0.129 | 1070.38
x2 = 0.1956 | 1057.38
x2 = 0.2575 | 1045.16
x2 = 0.3202 | 1032.63
x2 = 0.4361 | 1008.96
x2 = 0.5001 | 995.63
x2 = 0.5582 | 983.34
x2 = 0.6155 | 971.03
x2 = 0.6735 | 958.42
x2 = 0.7283 | 946.34
x2 = 0.785 | 933.66
x2 = 0.8394 | 921.33
x2 = 0.8926 | 909.15
x2 = 0.9451 | 896.94

ClCCCCCCl [1,5-dichloropentane] + CCOC(C)=O
Settings | mass density [kg/m3]
x2 = 0.078 | 1082.84
x2 = 0.1498 | 1071.08
x2 = 0.2187 | 1059.41
x2 = 0.2869 | 1047.48
x2 = 0.3508 | 1035.92
x2 = 0.4146 | 1024.01
x2 = 0.5355 | 1000.44
x2 = 0.5943 | 988.46
x2 = 0.6527 | 976.18
x2 = 0.7039 | 965.12
x2 = 0.7557 | 953.57
x2 = 0.8066 | 941.94
x2 = 0.8572 | 930.03
x2 = 0.9059 | 918.17
x2 = 0.9527 | 906.46

ClCCCCCCl [1,5-dichloropentane] + CCOC=O
Settings | mass density [kg/m3]
x2 = 0.0925 | 1084.33
x2 = 0.173 | 1074.06
x2 = 0.2529 | 1063.2
x2 = 0.3276 | 1052.35
x2 = 0.3957 | 1041.79
x2 = 0.4618 | 1031.02
x2 = 0.5249 | 1020.19
x2 = 0.5835 | 1009.55
x2 = 0.6395 | 998.87
x2 = 0.6917 | 988.42
x2 = 0.7415 | 977.92
x2 = 0.7896 | 967.31
x2 = 0.836 | 956.62
x2 = 0.8791 | 946.24
x2 = 0.9211 | 935.6
x2 = 0.9595 | 925.4

ClCCCCl [1,3-dichloropropane] + CCOC(=O)CC
Settings | mass density [kg/m3]
x2 = 0.0533 | 1159.49
x2 = 0.1039 | 1141.98
x2 = 0.1552 | 1124.63
x2 = 0.2595 | 1090.43
x2 = 0.3141 | 1073.08
x2 = 0.3691 | 1056.04
x2 = 0.4264 | 1038.67
x2 = 0.4849 | 1021.36
x2 = 0.6033 | 987.47
x2 = 0.666 | 970.14
x2 = 0.7288 | 953.17
x2 = 0.7937 | 935.99
x2 = 0.861 | 918.65
x2 = 0.9271 | 901.62

ClCCCCCl [1,4-dichlorobutane] + CCOC=O
Settings | mass density [kg/m3]
x2 = 0.0818 | 1119.67
x2 = 0.1583 | 1106.59
x2 = 0.2305 | 1093.6
x2 = 0.2967 | 1081.3
x2 = 0.3635 | 1068.33
x2 = 0.4271 | 1055.54
x2 = 0.491 | 1042.19
x2 = 0.6081 | 1016.39
x2 = 0.6615 | 1003.97
x2 = 0.7146 | 991.26
x2 = 0.7671 | 978.22
x2 = 0.816 | 965.61
x2 = 0.8633 | 952.97
x2 = 0.91 | 940.24
x2 = 0.9551 | 927.47

ClCCCCl [1,3-dichloropropane] + CCOC=O
Settings | mass density [kg/m3]
x2 = 0.076 | 1161.06
x2 = 0.1432 | 1145.36
x2 = 0.2073 | 1130.02
x2 = 0.2696 | 1114.94
x2 = 0.3338 | 1099.05
x2 = 0.394 | 1083.9
x2 = 0.4558 | 1068.05
x2 = 0.5152 | 1052.57
x2 = 0.5731 | 1037.18
x2 = 0.6297 | 1021.91
x2 = 0.6862 | 1006.34
x2 = 0.7413 | 990.94
x2 = 0.794 | 975.98
x2 = 0.8475 | 960.54
x2 = 0.8994 | 945.31
x2 = 0.9494 | 930.3

ClCCCCCl [1,4-dichlorobutane] + CCOC(=O)CC
Settings | mass density [kg/m3]
x2 = 0.0587 | 1117.82
x2 = 0.1153 | 1103.37
x2 = 0.1718 | 1088.99
x2 = 0.2299 | 1074.24
x2 = 0.2859 | 1060.13
x2 = 0.3447 | 1045.32
x2 = 0.403 | 1030.76
x2 = 0.4615 | 1016.16
x2 = 0.5233 | 1000.86
x2 = 0.5825 | 986.22
x2 = 0.6382 | 972.47
x2 = 0.698 | 957.78
x2 = 0.8187 | 928.2
x2 = 0.8774 | 913.87
x2 = 0.9378 | 899.14

CCOC=O [ethyl methanoate] + ClCCCl
Settings | mass density [kg/m3]
x1 = 0.0604 | 1224.56
x1 = 0.1183 | 1204.73
x1 = 0.175 | 1185.45
x1 = 0.2911 | 1146.17
x1 = 0.3483 | 1126.98
x1 = 0.4068 | 1107.45
x1 = 0.4649 | 1088.21
x1 = 0.5246 | 1068.52
x1 = 0.5831 | 1049.26
x1 = 0.6432 | 1029.61
x1 = 0.7012 | 1010.71
x1 = 0.758 | 992.23
x1 = 0.817 | 973.15
x1 = 0.8778 | 953.5
x1 = 0.9362 | 934.65
